# Measured values taken from patent publication US11260083B2, “Compositions and methods for treating and preventing graft versus host disease” (The Regents of the University of Michigan, priority 2016, dated 2022).
# Experiments:
# IECs = experiment: qPCR of butyrate treated IECs in vitro; assay type: cell-based, mouse
# Method: mRNA was isolated from samples using RNeasy kit following manufacturers instructions (Qiagen; Venlo, Netherlands). Using 1 μg of each mRNA template, cDNA was synthesized using SuperScript VILO (Invitrogen; Carlsbad, Calif.). qPCR primers were designed for murine targets. All primers were verified for the production of a single specific PCR product using a melting curve program and are shown below in Table 2.
# It was hypothesized that butyrate would increase anti-apoptotic genes by modulation of histone acetylation. […] It was also determined if the restored acetylation of histone H4 observed in butyrate-treated allo-BMT recipients was responsible for increased BCL-B (Bcl2110) and JAM (F11r) expression via ChIP.
# primary C57BL/6J IECs = experiment: CTL assay: allogeneic CD8+ T cell killing of IECs; assay type: cell-based, mouse; conditions: butyrate pre-treated overnight, vs control
# Method: CD8+ T cells were isolated from Balb/c (H-2d) mice using anti-CD8 microbeads and LS columns (Miltenyi Biotec) following the manufacturer's instructions. CD8+ T cells were primed in the presence of irradiated (30 Gy) C57BL/6J (H-2b) splenocytes for 6 days prior to culture with primary IECs for 6 h and 16 h. Primary C57BL/6J IECs were harvested and incubated overnight in the presence or absence of butyrate 1 mM in gelatin coated (Cell Biologics Inc.; Chicago, Ill.) 100 mm-culture dishes (Fisher Scientific).
# The potential mechanisms that contribute to butyrate-induced protection from severe GVHD were explored. Because (a) butyrate is decreased in IECs, (b) administration of butyrate mitigated GI GVHD independent of Treg cells, but (c) improved junction integrity, it was explored whether butyrate had direct effects on protecting IECs from allo-T cell mediated damage and conditioning. IECs were treated ex vivo with vehicle or butyrate for 24 hours irradiation (6 Gy) or no-irradition, followed by 24 hours of additional incubation with butyrate was performed. […] The ability of butyrate-treated IECs to withstand damage mediated by alloreactive T cells was determined by isolating and culturing primary IECs with butyrate or vehicle control, overnight. […] Because butyrate is a primary energy source for IECs 1-13, it was next determined whether butyrate enhances survival and growth of IECs in vitro. […]
# [1] = tested on: parent (C57BL/6J) into F1 (B6D2F1) BMT recipients; experiment: Non-irradiated parent into F1 BMT model with butyrate; assay type: in vivo, mouse; conditions: intragastric butyrate
# [2] = tested on: donor T cells, Treg cells and macrophages in the intestine; experiment: Flow cytometry of intestinal cellular contents after allo-BMT; assay type: in vivo, mouse
# Text: To analyze immunophenotype surface markers, lymphocytes contained in the IEC fraction or spleen were harvested, stained using recommended dilutions indicated by manufacturer product sheets and gated on CD4-conjugated PerCP/Cy5.5 (Clone: GK1.5) or CD8-conjugated APC (Clone: 53-6.7) and configurations of the following per mouse in duplicate: CD69-PE (Clone: H1.2F3), CD62L-PE (Clone: MEL-14), CD25-PE (Clone: 3C7), CD44-PerCP/Cy5.5 (Clone: IM7), CD44-APC (Clone: IM7), FoxP3-APC (Clone: FJK-16s). Stained cells were then analyzed with an Accuri C6 Flow Cytometer (BD Biosciences). IECs were stained with CD326-conjugated APC (Clone: G8.8) and DAPI and sorted to >98% purity using a FACSAria III (BD Biosciences) gating on live cells.
# The total numbers of CD45.1+ cells recovered from the intestinal lamina propria were not different between vehicle- and butyrate-treated allo-BMT recipients. By contrast, intestinal infiltration of donor CD4+ and CD8+ T cells and activated T cells (CD69+ or CD44hi) was decreased in animals that received local intragastric butyrate administration (FIG. 4a). However, the ratio of donor Treg cells to effector T cells was not different in the intestines of these animals (FIG. 4b). […] However, no difference in the total number of donor macrophages in the intestine of allogenenic recipients that were treated with either vehicle or butyrate was observed (FIG. 4c).
# HDAC = HDAC enzymatic activity in donor T cells from recipient spleen; assay type: in vivo, mouse; conditions: butyrate vs vehicle treated allogeneic animals
# Method: To further determine whether the salutary effects of local treatment with butyrate on GI GVHD were dependent on donor Treg cells, a BMT was performed utilizing the same HC mismatched BMT model in which C57BL/6J (H-2b) cells are transferred to Balb/c (H-2d) mice. T cell-depleted (TCD) bone marrow was transplanted and purified CD4+CD25− T cells from donors. Vehicle or butyrate was administered to the recipients daily for 1 week, then every other day thereafter as above. […]. J. Exp. Med. 204, 57-63 (2007); Lahl, K. & Sparwasser, T. In vivo depletion of FoxP3+ Tregs using the DEREG mouse model. […]. The Treg depleted T cells were then used as donor cells in the major MHC mismatch model used above. […] To further examine whether the local administration of butyrate impacted donor T cells directly, the HDAC and HAT enzymatic activity was determined in donor T cells harvested from the recipient animals. Both the HDAC activity or HAT activity in the donor T cells harvested from the recipient spleen were similar between butyrate and vehicle treated allogeneic animals.
# [3] = IECs following butyrate treatment
structure (smiles),measurement,setting,value
"CCCC(=O)[O-].[Na+] [butyrate, sodium butyrate]",mRNA expression of JAM (F11r),IECs; [3],significantly increased
same,mRNA expression of occludin (Ocln),IECs; [3],significantly increased
same,Bakl mRNA expression,IECs; butyrate treated IECs,significantly decreased
same,Bax mRNA expression,IECs; butyrate treated IECs,significantly decreased
same,transcripts of BCL-B (Bcl2110),IECs; butyrate treated IECs,significantly increased
same,IECs succumbing to CD8+ T cell killing,primary C57BL/6J IECs; 6 hours co-culture,Fewer butyrate pre-treated IECs succumbed
same,IECs succumbing to CD8+ T cell killing,primary C57BL/6J IECs; 16 hours co-culture,Fewer butyrate pre-treated IECs succumbed
same,survival,[1],improved survival
same,weight loss,[1],Significantly less weight loss
same,ratio of donor Treg cells to effector T cells in the intestines,[2]; 21 days after allo-BMT,not different
same,intestinal infiltration of donor CD4+ and CD8+ T cells and activated T cells (CD69+ or CD44hi),"[2]; 21 days after allo-BMT, intragastric butyrate",decreased
same,total numbers of CD45.1+ cells recovered from the intestinal lamina propria,"[2]; 21 days after allo-BMT, vehicle vs butyrate",not different
same,total number of donor macrophages in the intestine,"[2]; allogeneic recipients, vehicle vs butyrate",no difference
same,HDAC activity in donor T cells,HDAC,similar
